{"source": "patent US11643395B2", "about": "“Derivatives of 4-aminoantipyrine as anti-Alzheimers butyrylcholinesterase inhibitors” (priority 2021, dated 2023)", "key": {"[1]": {"target": "T1, butyrylcholinesterase (BuChE) enzyme (Homo sapiens (Human), UniProt P06276)", "T1 sequence (P06276 29-602)": "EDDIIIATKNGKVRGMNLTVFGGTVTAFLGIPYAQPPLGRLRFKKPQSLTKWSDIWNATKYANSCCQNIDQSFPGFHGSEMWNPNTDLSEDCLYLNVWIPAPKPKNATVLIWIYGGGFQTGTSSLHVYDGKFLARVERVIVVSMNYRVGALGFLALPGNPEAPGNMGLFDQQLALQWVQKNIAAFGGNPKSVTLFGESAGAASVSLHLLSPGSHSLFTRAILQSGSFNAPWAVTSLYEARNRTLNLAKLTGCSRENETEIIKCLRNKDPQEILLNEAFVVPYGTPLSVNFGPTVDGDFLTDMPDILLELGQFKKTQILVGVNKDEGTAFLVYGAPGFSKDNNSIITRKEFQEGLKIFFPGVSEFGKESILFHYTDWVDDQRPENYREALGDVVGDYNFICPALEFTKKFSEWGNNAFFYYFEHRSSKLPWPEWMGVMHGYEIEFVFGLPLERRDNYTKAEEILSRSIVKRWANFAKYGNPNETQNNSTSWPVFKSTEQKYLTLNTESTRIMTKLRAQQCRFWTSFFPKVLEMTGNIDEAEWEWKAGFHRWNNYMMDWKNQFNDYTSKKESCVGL", "assay": "Kinetic studies of butyrylcholinesterase inhibition (L-B reciprocal plots)", "assay_type": "biochemical", "conditions": "four substrate concentrations (0.05, 0.1, 0.2, 0.4 mM); for Ki: read-out: Butyrylcholinesterase Inhibition Activity Ki ± SEM", "description": "0.5 mM concentrations of each inhibitor, as well as control, were examined for their butyrylcholinesterase inhibitory activity using four different substrate concentrations (0.05, 0.1, 0.2, and 0.4 mM)."}, "[2]": {"target": "T1, butyrylcholinesterase (BuChE) enzyme", "assay": "In-vitro butyryl cholinesterase inhibitory activity (DTNB, 96-well)", "assay_type": "biochemical", "conditions": "for IC50: read-out: Butyrylcholinesterase Inhibition Activity IC50 ± SEM; for Butyrylcholinesterase inhibition, rating in words: compared with standard galantamine hydrobromide", "description": "After that 10 μL of pre-prepared butyrylthiocholine chloride (0.5 mM) substrate was added in the dark for 15 minutes, followed by the addition DTNB (0.5 mM), to produce thionitrobenzoate (TNB), whose absorbance range in 412 nm. 5-Thio-2 nitrobenzoate (TNB) (yellow color) anion was produced when thiocholine binds with DTNB which was measured in the form of absorbance in each well. Each compound was evaluated in triplicate at 0.5 mM.\nThe enzyme inhibitory activity was calculated using the following formula: Percent Inhibition=100−(O.D. of test/O.D. of control)×100\nWhere test is the enzyme activity with sample, and control is the enzyme activity without sample, and O.D. is optical density.\nThe IC50 of the compounds was calculated using EZ-Fit Enzyme Kinetic Program (Perrella Scientific Inc., Amhrest, U.S.A.)."}, "[3]": {"conditions": "butyrylthiocholine chloride substrate, pH 8.0, 25° C."}}, "note": "“Also recorded” adds a separate entry of the source. Where a name gives a salt, the structure may show the parent alone."}
{"smiles": "Cc1c(N(Cc2ccccc2Br)Cc2ccccc2Br)c(=O)n(-c2ccccc2)n1C", "note": "[Compound 6, 4-(Bis(2-bromobenzyl)amino)-1,5-dimethyl-2-phenyl-1,2-dihydro-3H-pyrazol-3-one]", "values": [{"measurement": "Type of inhibition of butyrylcholinesterase", "setting": "[1]", "result": "non-competitive type of inhibition; also recorded: Non-competitive Inhibitor"}, {"measurement": "Ki", "setting": "[1]", "result": 2400, "unit": "nM"}, {"measurement": "IC50", "setting": "[2]; [3]", "result": 700, "unit": "nM"}, {"measurement": "Butyrylcholinesterase inhibition, rating in words", "setting": "[2]", "result": "potent inhibitors"}]}
{"smiles": "Cc1c(N(Cc2cccc(Cl)c2)Cc2cccc(Cl)c2)c(=O)n(-c2ccccc2)n1C", "note": "[Compound 1, 4-(Bis(3-chlorobenzyl)amino)-1,5-dimethyl-2-phenyl-1,2-dihydro-3H-pyrazol-3-one]", "values": [{"measurement": "IC50", "setting": "[2]; [3]", "result": 100, "unit": "nM"}, {"measurement": "Butyrylcholinesterase inhibition, rating in words", "setting": "[2]", "result": "potent inhibitors"}]}
{"smiles": "Cc1c(N(Cc2cccc(Br)c2)Cc2cccc(Br)c2)c(=O)n(-c2ccccc2)n1C", "note": "[Compound 8, 4-(Bis(3-bromobenzyl)amino)-1,5-dimethyl-2-phenyl-1,2-dihydro-3H-pyrazol-3-one]", "values": [{"measurement": "IC50", "setting": "[2]; [3]", "result": 26.2, "unit": "nM"}, {"measurement": "Butyrylcholinesterase inhibition, rating in words", "setting": "[2]", "result": "potent inhibitors"}]}
{"smiles": "COc1ccc2c3c1O[C@H]1C[C@@H](O)C=C[C@@]31CCN(C)C2", "note": "[galantamine hydrobromide, reference compound]", "values": [{"measurement": "Type of inhibition of butyrylcholinesterase", "setting": "[1]", "result": "Mixed type Inhibitor"}]}
{"smiles": "Cc1c(N(Cc2ccc(I)cc2)Cc2ccc(I)cc2)c(=O)n(-c2ccccc2)n1C", "note": "[Compound 5, 4-(Bis(4-iodobenzyl)amino)-1,5-dimethyl-2-phenyl-1,2-dihydro-3H-pyrazol-3-one]", "values": [{"measurement": "Type of inhibition of butyrylcholinesterase", "setting": "[1]", "result": "competitive inhibition; also recorded: Competitive Inhibitor"}, {"measurement": "Ki", "setting": "[1]", "result": 5670, "unit": "nM"}, {"measurement": "IC50", "setting": "[2]; [3]", "result": 2430, "unit": "nM"}, {"measurement": "Butyrylcholinesterase inhibition, rating in words", "setting": "[2]", "result": "potent inhibitors"}]}
{"smiles": "Cc1c(N)c(=O)n(-c2ccccc2)n1C", "note": "[4-aminoantipyrine, 4-Aminoantipyrine]", "values": [{"measurement": "IC50", "setting": "[2]; [3]", "result": "69700 ± 400", "unit": "nM"}, {"measurement": "Butyrylcholinesterase inhibition, rating in words", "setting": "[2]", "result": "moderate inhibitor"}]}
{"smiles": "Cc1c(N(Cc2ccc(Br)cc2)Cc2ccc(Br)cc2)c(=O)n(-c2ccccc2)n1C", "note": "[Compound 7, 4-(Bis(4-bromobenzyl)amino)-1,5-dimethyl-2-phenyl-1,2-dihydro-3H-pyrazol-3-one]", "values": [{"measurement": "IC50", "setting": "[2]; [3]", "result": "58700 ± 400", "unit": "nM"}, {"measurement": "Butyrylcholinesterase inhibition, rating in words", "setting": "[2]", "result": "moderate inhibitor"}]}
{"smiles": "Cc1c(N(Cc2ccccc2I)Cc2ccccc2I)c(=O)n(-c2ccccc2)n1C", "note": "[Compound 4, 4-(Bis(2-iodobenzyl)amino)-1,5-dimethyl-2-phenyl-1,2-dihydro-3H-pyrazol-3-one]", "values": [{"measurement": "Butyrylcholinesterase Inhibition Activity IC50 ± SEM", "setting": "[2]; [3]", "result": "Not Active"}, {"measurement": "Butyrylcholinesterase inhibition, rating in words", "setting": "[2]", "result": "completely inactive"}]}
{"smiles": "Cc1c(N(Cc2cccc(I)c2)Cc2cccc(I)c2)c(=O)n(-c2ccccc2)n1C", "note": "[Compound 3, 4-(Bis(3-iodobenzyl)amino)-1,5-dimethyl-2-phenyl-1,2-dihydro-3H-pyrazol-3-one]", "values": [{"measurement": "IC50", "setting": "[2]; [3]", "result": 400, "unit": "nM"}, {"measurement": "Butyrylcholinesterase inhibition, rating in words", "setting": "[2]", "result": "potent inhibitors"}]}
{"smiles": "Cc1c(N(Cc2ccccc2Cl)Cc2ccccc2Cl)c(=O)n(-c2ccccc2)n1C", "note": "[Compound 2, 4-(Bis(2-chlorobenzyl)amino)-1,5-dimethyl-2-phenyl-1,2-dihydro-3H-pyrazol-3-one]", "values": [{"measurement": "IC50", "setting": "[2]; [3]", "result": 500, "unit": "nM"}, {"measurement": "Butyrylcholinesterase inhibition, rating in words", "setting": "[2]", "result": "potent inhibitors"}]}
